Results as given in ChEMBL document CHEMBL3885881, “DrugMatrix”.

Species on record: Rattus norvegicus
Test: DrugMatrix - Regimen: Daily Repeat
Format: toxicity, organism-based, Sprague-Dawley
Set-up: regimen Daily Repeat, gender Male, age 6-8 weeks
Conditions: in vivo, po, route oral GAVAGE, vehicle 100 % WATER; for ABSOLUTE BASOPHIL / ABSOLUTE EOSINOPHIL / ABSOLUTE LYMPHOCYTE / ABSOLUTE MONOCYTE / ABSOLUTE SEGMENTED NEUTROPHIL / BASOPHIL / EOSINOPHIL / ERYTHROCYTE COUNT / HEMATOCRIT / HEMOGLOBIN / LEUKOCYTE COUNT / LYMPHOCYTE / MEAN CORPUSCULAR HEMOGLOBIN / MEAN CORPUSCULAR HEMOGLOBIN CONCENTRATION / MEAN CORPUSCULAR VOLUME / MONOCYTE / NEUTROPHIL / NUCLEATED RED BLOOD CELLS / PLATELET COUNT: tissue Blood; for ALANINE AMINOTRANSFERASE / ALBUMIN / ALKALINE PHOSPHATASE / ASPARTATE AMINOTRANSFERASE / BLOOD UREA NITROGEN / CARBON DIOXIDE / CHLORIDE / CHOLESTEROL / CREATINE PHOSPHOKINASE / CREATININE / GLUCOSE / LACTATE DEHYDROGENASE / LIPASE / PHOSPHORUS / POTASSIUM / SODIUM / TOTAL BILIRUBIN / TOTAL PROTEIN / URIC ACID: tissue Plasma
[1] = 0 mg/kg, 72 h, dose level Control, time 3 day
[2] = 0 mg/kg, 120 h, dose level Control, time 5 day
[3] = 2 mg/kg, 72 h, dose level Low, time 3 day

CC(C)(C)c1ccc(C(=O)CCCN2CCC(OC(c3ccccc3)c3ccccc3)CC2)cc1 [EBASTINE]
ABSOLUTE BASOPHIL [1]: 0 CELLS/uL | ABSOLUTE EOSINOPHIL [1]: 123.17 CELLS/uL | ABSOLUTE LYMPHOCYTE [1]: 12677.83 CELLS/uL | ABSOLUTE MONOCYTE [1]: 66.17 CELLS/uL | ABSOLUTE SEGMENTED NEUTROPHIL [1]: 1149.5 CELLS/uL | BASOPHIL [1]: 0% | EOSINOPHIL [1]: 0.83% | ERYTHROCYTE COUNT [1]: 5.26 x10E6/uL | HEMATOCRIT [1]: 33.07% | HEMOGLOBIN [1]: 13.43 G/DL | LEUKOCYTE COUNT [1]: 14.02 x10E3/uL | LYMPHOCYTE [1]: 90.17% | MEAN CORPUSCULAR HEMOGLOBIN [1]: 25.62 pg | MEAN CORPUSCULAR HEMOGLOBIN CONCENTRATION [1]: 40.65 G/DL | MEAN CORPUSCULAR VOLUME [1]: 63 fL | MONOCYTE [1]: 0.5% | NEUTROPHIL [1]: 8.5% | NUCLEATED RED BLOOD CELLS [1]: 0.17 /100WBC | PLATELET COUNT [1]: 1142.83 x10E3/uL | ALANINE AMINOTRANSFERASE [1]: 45.17 u/L | ALBUMIN [1]: 3.78 G/DL | ALKALINE PHOSPHATASE [1]: 340.17 u/L | ASPARTATE AMINOTRANSFERASE [1]: 77.33 u/L | BLOOD UREA NITROGEN [1]: 14.67 mg/dL | CARBON DIOXIDE [1]: 28.67 mmol/L | CHLORIDE [1]: 101.17 MEQ/L | CHOLESTEROL [1]: 77.67 mg/dL | CREATINE PHOSPHOKINASE [1]: 263.67 u/L | CREATININE [1]: 0.15 mg/dL | GLUCOSE [1]: 169.33 mg/dL | LACTATE DEHYDROGENASE [1]: 230 u/L | LIPASE [1]: 9.67 u/L | PHOSPHORUS [1]: 11.8 mg/dL | POTASSIUM [1]: 5.91 MEQ/L | SODIUM [1]: 142.88 MEQ/L | TOTAL BILIRUBIN [1]: 0.22 mg/dL | TOTAL PROTEIN [1]: 5.7 G/DL | URIC ACID [1]: 1.35 mg/dL | ABSOLUTE BASOPHIL [2]: 0 CELLS/uL | ABSOLUTE EOSINOPHIL [2]: 125 CELLS/uL | ABSOLUTE LYMPHOCYTE [2]: 13809 CELLS/uL | ABSOLUTE MONOCYTE [2]: 351 CELLS/uL | ABSOLUTE SEGMENTED NEUTROPHIL [2]: 1581.67 CELLS/uL | BASOPHIL [2]: 0% | EOSINOPHIL [2]: 0.67% | ERYTHROCYTE COUNT [2]: 5.53 x10E6/uL | HEMATOCRIT [2]: 34.83% | HEMOGLOBIN [2]: 13.9 G/DL | LEUKOCYTE COUNT [2]: 15.87 x10E3/uL | LYMPHOCYTE [2]: 87.5% | MEAN CORPUSCULAR HEMOGLOBIN [2]: 25.25 pg | MEAN CORPUSCULAR HEMOGLOBIN CONCENTRATION [2]: 40.08 G/DL | MEAN CORPUSCULAR VOLUME [2]: 63.05 fL | MONOCYTE [2]: 2.17% | NEUTROPHIL [2]: 9.67% | NUCLEATED RED BLOOD CELLS [2]: 0 /100WBC | PLATELET COUNT [2]: 1044 x10E3/uL | ALANINE AMINOTRANSFERASE [2]: 50.67 u/L | ALBUMIN [2]: 4.33 G/DL | ALKALINE PHOSPHATASE [2]: 395 u/L | ASPARTATE AMINOTRANSFERASE [2]: 86 u/L | BLOOD UREA NITROGEN [2]: 15.33 mg/dL | CARBON DIOXIDE [2]: 29.33 mmol/L | CHLORIDE [2]: 101.5 MEQ/L | CHOLESTEROL [2]: 71.33 mg/dL | CREATINE PHOSPHOKINASE [2]: 323.17 u/L | CREATININE [2]: 0.18 mg/dL | GLUCOSE [2]: 145.67 mg/dL | LACTATE DEHYDROGENASE [2]: 389.5 u/L | LIPASE [2]: 9.83 u/L | PHOSPHORUS [2]: 11.35 mg/dL | POTASSIUM [2]: 6.39 MEQ/L | SODIUM [2]: 142.77 MEQ/L | TOTAL BILIRUBIN [2]: 0.18 mg/dL | TOTAL PROTEIN [2]: 6.1 G/DL | URIC ACID [2]: 1.52 mg/dL | ABSOLUTE BASOPHIL [3]: 0 CELLS/uL | ABSOLUTE EOSINOPHIL [3]: 62.33 CELLS/uL | ABSOLUTE LYMPHOCYTE [3]: 12860.33 CELLS/uL | ABSOLUTE MONOCYTE [3]: 62.33 CELLS/uL | ABSOLUTE SEGMENTED NEUTROPHIL [3]: 1348.33 CELLS/uL | BASOPHIL [3]: 0% | EOSINOPHIL [3]: 0.33% | ERYTHROCYTE COUNT [3]: 5.22 x10E6/uL | HEMATOCRIT [3]: 34.2% | HEMOGLOBIN [3]: 13.67 G/DL | LEUKOCYTE COUNT [3]: 14.33 x10E3/uL | LYMPHOCYTE [3]: 89.67% | MEAN CORPUSCULAR HEMOGLOBIN [3]: 26.2 pg | MEAN CORPUSCULAR HEMOGLOBIN CONCENTRATION [3]: 40 G/DL | MEAN CORPUSCULAR VOLUME [3]: 65.5 fL | MONOCYTE [3]: 0.33% | NEUTROPHIL [3]: 9.67% | NUCLEATED RED BLOOD CELLS [3]: 0 /100WBC | PLATELET COUNT [3]: 1183.33 x10E3/uL | ALANINE AMINOTRANSFERASE [3]: 47.67 u/L | ALBUMIN [3]: 3.87 G/DL | ALKALINE PHOSPHATASE [3]: 322 u/L | ASPARTATE AMINOTRANSFERASE [3]: 75.33 u/L | BLOOD UREA NITROGEN [3]: 14.33 mg/dL | CARBON DIOXIDE [3]: 32.67 mmol/L | CHLORIDE [3]: 99.67 MEQ/L | CHOLESTEROL [3]: 75.67 mg/dL | CREATINE PHOSPHOKINASE [3]: 258.67 u/L | CREATININE [3]: 0.13 mg/dL | GLUCOSE [3]: 151 mg/dL | LACTATE DEHYDROGENASE [3]: 188 u/L | LIPASE [3]: 10 u/L | PHOSPHORUS [3]: 11.23 mg/dL | POTASSIUM [3]: 6.55 MEQ/L | SODIUM [3]: 141.57 MEQ/L | TOTAL BILIRUBIN [3]: 0.2 mg/dL | TOTAL PROTEIN [3]: 5.63 G/DL | URIC ACID [3]: 1.3 mg/dL
